Test results published in patent publication US10836775B2, “6,6-fused heteroaryl piperidine ether allosteric modulators of the M4 muscarinic acetylcholine receptor” (Merck Sharp & Dohme Corp., priority 2016, dated 2020).

These molecules were tested against T1, human M4 muscarinic acetylcholine receptor (Homo sapiens, UniProt P08173) (assay: human FLIPR-based M4 PAM assay (CHO-K1 cells, human M4 receptor and Gαqi5, calcium dye fluorescence, acetylcholine at 20% of maximum)). Conditions: inflection point (IP) of 4 parameter logistic dose response curve; CHO-K1 cells with human M4 receptor and Gαqi5; FLIPR Tetra.
T1 construct: expressed in transfected cells; host or cells: CHO-K1
T1 sequence (P08173 1-479): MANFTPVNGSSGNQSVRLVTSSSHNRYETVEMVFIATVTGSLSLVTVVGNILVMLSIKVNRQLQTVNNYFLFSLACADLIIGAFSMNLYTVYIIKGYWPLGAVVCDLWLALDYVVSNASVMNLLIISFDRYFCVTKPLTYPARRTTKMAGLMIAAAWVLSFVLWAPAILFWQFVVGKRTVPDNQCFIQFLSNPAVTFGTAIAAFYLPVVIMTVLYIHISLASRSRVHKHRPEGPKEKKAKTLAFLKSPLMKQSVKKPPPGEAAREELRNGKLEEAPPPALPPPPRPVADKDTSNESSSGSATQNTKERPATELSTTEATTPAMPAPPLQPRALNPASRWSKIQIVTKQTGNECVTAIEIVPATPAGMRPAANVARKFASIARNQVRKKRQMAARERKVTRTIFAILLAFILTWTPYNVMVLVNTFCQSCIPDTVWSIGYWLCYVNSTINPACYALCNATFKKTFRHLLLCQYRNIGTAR
Assay type: cell-based
Experimental: In a typical experiment the M4 muscarinic acetylcholine receptor modulating activity of the compounds of the present invention was determined in accordance with the following experimental method. […] On the day of assay, growth medium is removed, the cells are washed 2 times with wash buffer, and cells are incubated in dye loading buffer at 37° C., 5% CO2 for ˜1 hour. […] Next, 10 uL of acetylcholine is added (final concentration calculated so as to achieve 20% of the maximum acetycholine response), and the fluorescence reading is continued for 3.5 min. In some cases, a third addition of acetylcholine (final concentration calculated to achieve 70% of the maximal acetylcholine response) is performed. The resulting dose response curves are fit to a 4 parameter logistic equation and the final result is determined as the inflection point (IP) of the curve
CHO-K1 cells stably transfected with human M4 receptor and chimeric G-protein Gαqi5 are thawed from liquid N2 storage, resuspended in growth medium, plated in black, clear bottom 384 well plates, and incubated 16-20 hours at 37° C., 5% CO2.
On the day of assay, growth medium is removed, the cells are washed 2 times with wash buffer, and cells are incubated in dye loading buffer at 37° C., 5% CO2 for ˜1 h. […] Next, 10 uL of acetylcholine is added (final concentration calculated so as to achieve 20% of the maximum acetycholine response), and the fluorescence reading is continued for 3.5 min. In some cases, a third addition of acetylcholine (final concentration calculated to achieve 70% of the maximal acetylcholine response) is performed.
For `COc1ccc(OC2CCN(c3nc4c(cc3C)C(=O)NCC4)CC2)cn1` [Example 1, 2-(4-((6-Methoxypyridin-3-yl)oxy)piperidin-1-yl)-3-methyl-7,8-dihydro-1,6-naphthyridin-5(6H)-one], the EC50 was 393 nM.
In the case of `COc1ccc(CN2CCc3nc(N4CCC(Oc5ccc(OC)nc5)CC4)c(C)cc3C2=O)cc1` [Example 2, 6-(4-methoxybenzyl)-2-(4-((6-methoxypyridin-3-yl)oxy)piperidin-1-yl)-3-methyl-7,8-dihydro-1,6-naphthyridin-5(6H)-one], the EC50 is reported as 988 nM.
For `COc1ccc(OC2CCN(c3nc4c(cc3C)C(=O)N(Cc3ccncc3)CC4)CC2)cn1` [Example 3, 2-(4-((6-methoxypyridin-3-yl)oxy)piperidin-1-yl)-3-methyl-6-(pyridin-4-ylmethyl)-7,8-dihydro-1,6-naphthyridin-5(6H)-one], the EC50 was 453 nM.
With `COc1ccc(OC2CCN(c3nc4c(cc3C)C(=O)N(C)CC4)CC2)cn1` [Example 4, 2-(4-((6-methoxypyridin-3-yl)oxy)piperidin-1-yl)-3,6-dimethyl-7,8-dihydro-1,6-naphthyridin-5(6H)-one] the EC50 was 431 nM.
`COc1ccc(OC2CCN(c3nc4c(cc3C)c(=O)[nH]c(=O)n4C)CC2)cn1` [Example 5, 7-(4-((6-Methoxypyridin-3-yl)oxy)piperidin-1-yl)-1,6-dimethylpyrido[2,3-d]pyrimidine-2,4(1H,3H)-dione] gave an EC50 of 366 nM.
`COc1ccc(OC2CCN(c3nc4[nH]c(=O)n(C)c(=O)c4cc3C)CC2)cn1` [Example 6, 7-(4-((6-Methoxypyridin-3-yl)oxy)piperidin-1-yl)-3,6-dimethylpyrido[2,3-d]pyrimidine-2,4(1H,3H)-dione] showed an EC50 of 59 nM.
`Cc1cc2c(=O)[nH]c(=O)[nH]c2nc1N1CCC(Oc2cccc(C#N)c2)CC1` [Example 7, 3-((1-(6-methyl-2,4-dioxo-1,2,3,4-tetrahydro-pyrido[2,3-d]pyrimidin-7-yl)piperidin-4-yl)oxy)benzonitrile] showed an EC50 of 41 nM.
For `COc1ccc(OC2CCN(c3nc4[nH]c(=O)[nH]c(=O)c4cc3C)CC2)cn1` [Example 8, 7-(4-((6-Methoxypyridin-3-yl)oxy)piperidin-1-yl)-6-methylpyrido[2,3-d]pyrimidine-2,4(1H,3H)-dione], the EC50 was 18 nM.
Work on `COc1ccc(OC2CCN(c3nc4nc(CO)[nH]c(=O)c4cc3C)CC2)cn1` [Example 9, 2-(Hydroxymethyl)-7-(4-((6-methoxypyridin-3-yl)oxy)piperidin-1-yl)-6-methylpyrido[2,3-d]pyrimidin-4(3H)-one] yielded an EC50 of 140 nM.
In the case of `COc1ccc(OC2CCN(c3nc4nc[nH]c(=O)c4cc3C)CC2)cn1` [Example 10, 7-(4-((6-methoxypyridin-3-yl)oxy)piperidin-1-yl)-6-methylpyrido[2,3-d]pyrimidin-4(3H)-one], the EC50 is reported as 34 nM.
For `COc1ccc(OC2CCN(c3nc4cn[nH]c(=O)c4cc3C)CC2)cn1` [Example 11, 2-(4-((6-methoxypyridin-3-yl)oxy)piperidin-1-yl)-3-methylpyrido[2,3-d]pyridazin-5(6H)-one], the EC50 was 22 nM.
With `COc1ccc(OC2CCN(c3nc4cc[nH]c(=O)c4cc3C)CC2)cn1` [Example 12, 2-(4-((6-methoxypyridin-3-yl)oxy)piperidin-1-yl)-3-methyl-1,6-naphthyridin-5(6H)-one] the EC50 was 114 nM.
Molecule `COc1ccc(OC2CCN(c3nc4cnn(C)c(=O)c4cc3C)CC2)cn1` [Example 13, 2-(4-((6-methoxypyridin-3-yl)oxy)piperidin-1-yl)-3,6-dimethylpyrido[2,3-d]pyridazin-5(6H)-one] has an EC50 of 61 nM.
`Cc1cc2c(=O)[nH]cnc2nc1N1CCC(Oc2ccccc2)CC1` [Example 14, 6-methyl-7-(4-phenoxypiperidin-1-yl)pyrido[2,3-d]pyrimidin-4(3H)-one] showed an EC50 of 80 nM.
`Cc1cc2c(=O)[nH]cnc2nc1N1CCC(Oc2cccc(C#N)c2)CC1` [Example 15, 3-((1-(6-methyl-4-oxo-3,4-dihydropyrido[2,3-d]pyrimidin-7-yl)piperidin-4-yl)oxy)benzonitrile] gave an EC50 of 23 nM.
Work on `Cc1cc2c(=O)[nH]cnc2nc1N1CCC(Oc2cccnc2)CC1` [Example 16, 6-methyl-7-(4-(pyridin-3-yloxy)piperidin-1-yl)pyrido[2,3-d]pyrimidin-4(3H)-one] yielded an EC50 of 213 nM.
For `Cc1cc2c(=O)[nH]cnc2nc1N1CCC(OCC2CC2)CC1` [Example 17, 7-(4-(cyclopropyl-methoxy)piperidin-1-yl)-6-methylpyrido[2,3-d]pyrimidin-4(3H)-one], the EC50 was 121 nM.
`Cc1cc2c(=O)[nH]ncc2nc1N1CCC(OCC2CCCC2)CC1` [Example 18, 2-(4-(cyclopentyl-methoxy)piperidin-1-yl)-3-methylpyrido[2,3-d]pyridazin-5(6H)-one] showed an EC50 of 254 nM.
With `COc1ccc(OC2CCN(c3nc4nc(C)[nH]c(=O)c4cc3C)CC2)cn1` [Example 19, 7-(4-((6-methoxypyridin-3-yl)oxy)piperidin-1-yl)-2,6-dimethylpyrido[2,3-d]pyrimidin-4(3H)-one] the EC50 was 74 nM.
`Cc1nc2nc(N3CCC(OCC4(C)CC4)CC3)c(C)cc2c(=O)[nH]1` [Example 20, 2,6-dimethyl-7-(4-((1-methylcyclopropyl)methoxy)piperidin-1-yl)pyrido[2,3-d]pyrimidin-4(3H)-one] gave an EC50 of 50 nM.
With `Cc1cc2c(=O)[nH]ncc2nc1N1CCC(Oc2cccc(C#N)c2)CC1` [Example 21, 3-((1-(3-methyl-5-oxo-5,6-dihydropyrido[2,3-d]pyridazin-2-yl)piperidin-4-yl)oxy)benzonitrile] the EC50 was 26 nM.
Work on `Cc1nc2nc(N3CCC(Oc4cnc5c(c4)COC5)CC3)c(C)cc2c(=O)[nH]1` [Example 22, 7-(4-((5,7-dihydrofuro[3,4-b]pyridin-3-yl)oxy)piperidin-1-yl)-2,6-dimethylpyrido[2,3-d]pyrimidin-4(3H)-one] yielded an EC50 of 158 nM.
In the case of `Cc1cc2c(=O)[nH]ncc2nc1N1CCC(Oc2cnn(C)c2)CC1` [Example 23, 3-methyl-2-(4-((1-methyl-1H-pyrazol-4-yl)oxy)piperidin-1-yl)pyrido[2,3-d]pyridazin-5(6H)-one], the EC50 is reported as 158 nM.
`Cc1cc2c(=O)[nH]ncc2nc1N1CCC(OCC2(C)CC2)CC1` [Example 24, 3-methyl-2-(4-((1-methylcyclopropyl)methoxy)piperidin-1-yl)pyrido[2,3-d]pyridazin-5(6H)-one] was tested, and the EC50 was 18 nM.
Molecule `Cc1cc2c(=O)[nH]c(=O)[nH]c2nc1N1CCC(OCC2(C)CC2)CC1` [Example 25, 6-methyl-7-(4-((1-methylcyclopropyl)methoxy)piperidin-1-yl)pyrido[2,3-d]pyrimidine-2,4(1H,3H)-dione] has an EC50 of 19 nM.
Work on `Cc1cc2c(=O)[nH]c(=O)[nH]c2nc1N1CCC(Oc2cnn(C)c2)CC1` [Example 26, 6-methyl-7-(4-((1-methyl-1H-pyrazol-4-yl)oxy)piperidin-1-yl)pyrido[2,3-d]pyrimidine-2,4(1H,3H)-dione] yielded an EC50 of 90 nM.
`Cc1nc2nc(N3CCC(Oc4cnn(C)c4)CC3)c(C)cc2c(=O)[nH]1` [Example 27, 2,6-dimethyl-7-(4-((1-methyl-1H-pyrazol-4-yl)oxy)piperidin-1-yl)pyrido[2,3-d]pyrimidin-4(3H)-one] showed an EC50 of 494 nM.
Molecule `COCc1nc2nc(N3CCC(Oc4ccc(OC)nc4)CC3)c(C)cc2c(=O)[nH]1` [Example 28, 2-(methoxymethyl)-7-(4-((6-methoxypyridin-3-yl)oxy)piperidin-1-yl)-6-methylpyrido[2,3-d]pyrimidin-4(3H)-one] has an EC50 of 95 nM.
`Cc1cc2c(=O)[nH]ncc2nc1N1CCC(Oc2cnc3c(c2)COC3)CC1` [Example 29, 2-(4-((5,7-dihydrofuro[3,4-b]pyridin-3-yl)oxy)piperidin-1-yl)-3-methylpyrido[2,3-d]pyridazin-5(6H)-one] was tested, and the EC50 was 53 nM.
Molecule `COCCc1nc2nc(N3CCC(Oc4ccc(OC)nc4)CC3)c(C)cc2c(=O)[nH]1` [Example 30, 2-(2-methoxyethyl)-7-(4-((6-methoxypyridin-3-yl)oxy)piperidin-1-yl)-6-methylpyrido[2,3-d]pyrimidin-4(3H)-one] has an EC50 of 546 nM.
`CCc1cc2c(=O)[nH]c(=O)[nH]c2nc1N1CCC(OCC2(C)CC2)CC1` [Example 31, 6-ethyl-7-(4-((1-methylcyclopropyl)methoxy)piperidin-1-yl)pyrido[2,3-d]pyrimidine-2,4(1H,3H)-dione] gave an EC50 of 42 nM.
For `Cc1cc2c(=O)[nH]c(=O)[nH]c2nc1N1CCC(OCC2CCC2)CC1` [Example 32, 7-(4-(cyclobutyl-methoxy)piperidin-1-yl)-6-methylpyrido[2,3-d]pyrimidine-2,4(1H,3H)-dione], the EC50 was 236 nM.
